In general, solubility refers to the concentration that dissolves in the medium under given conditions.

The text below walks through data of US6503532B1, “Pharmaceutical composition containing tetrahydrocannabinol and a transdermal/transcutaneous delivery method thereof” (Murty Pharmaceuticals, Inc., priority 2001, dated 2003).

The nature of data set [1]: Solubility of THC in ethanol:water with or without permeation enhancer (HPLC). The following applies: ethanol:water 70:30 v/v, aqueous with cosolvent or surfactant or cyclodextrin, thermodynamic from solid.
For data set [2] the following is noted: 750 courses of oral therapy; cited from earlier work.
For data set [3] the following is noted: in vivo; cited from earlier work.

In the case of `CCCCCc1cc(O)c2c(c1)OC(C)(C)[C@@H]1CCC(C)=C[C@@H]21` [THC, tetrahydrocannabinol], in data set [1], the solubility at 24 h was 20.2 mg/mL. Also, the “poor or only partial response to THC, share of courses” value in data set [2] is “approximately 65%”. Moreover, the “Plasma levels for therapeutic effects” value in data set [3] was about 10 nanograms/ml.
